Results on 4 compounds are retold here after article PMC12799524, “Putative new biomarkers for renal transporter-mediated drug-drug interactions: Characterization as substrates of organic cation transporter 2, multidrug and toxin extrusion protein 1, and other important drug transporters” (Drug Metabolism and Disposition, 2025).

One series addresses T1, MATE1 (Homo sapiens, UniProt Q96FL8).
T1 sequence (Q96FL8 1-570): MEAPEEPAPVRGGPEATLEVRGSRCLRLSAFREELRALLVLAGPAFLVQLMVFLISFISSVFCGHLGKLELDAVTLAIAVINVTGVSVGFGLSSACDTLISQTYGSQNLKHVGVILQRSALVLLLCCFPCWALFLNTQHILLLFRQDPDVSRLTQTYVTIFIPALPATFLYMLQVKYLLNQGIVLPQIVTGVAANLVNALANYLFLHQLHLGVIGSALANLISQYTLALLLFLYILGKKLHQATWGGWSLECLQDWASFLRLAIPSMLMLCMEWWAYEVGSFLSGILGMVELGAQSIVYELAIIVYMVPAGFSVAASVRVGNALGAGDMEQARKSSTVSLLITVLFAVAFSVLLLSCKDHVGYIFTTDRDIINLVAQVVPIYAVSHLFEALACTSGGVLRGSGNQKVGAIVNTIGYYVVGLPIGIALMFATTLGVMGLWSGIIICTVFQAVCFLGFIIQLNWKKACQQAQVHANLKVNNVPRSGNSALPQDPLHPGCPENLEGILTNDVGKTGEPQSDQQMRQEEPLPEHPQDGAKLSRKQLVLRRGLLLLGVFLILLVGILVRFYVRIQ
In words: Uptake assay in HEK-MATE1 vs HEK-VC cells (pH 8.0). The following applies: for Uptake in HEK-MATE1 cells compared to HEK-VC cells: 10 μM substrate; for Uptake in HEK-MATE1 cells compared to HEK-VC cells (in words) / Effect of cimetidine on uptake in HEK-MATE1 cells: 10 and 100 μM substrate; for Uptake in HEK-MATE1 cells compared to HEK-VC cells (in words): pH 8.0; for Effect of cimetidine on uptake in HEK-MATE1 cells: cimetidine 50 μM; for In Vitro MATE1 (substrate class): summary of in vitro uptake/transport results. As for the experimental part:
(§1) Transport experiments were performed 48 hours after seeding.
(§2) The intracellular background of all 5 compounds in HEK cells at the beginning of the uptake experiments was investigated 48 hours after seeding without incubation with transport buffer (ie, 0 minutes). […] Then, cells were lysed with ice-cold 80% MeOH containing the aforementioned recovery standards. In addition, the impact of a 5-minute incubation period with transport buffer without added substance was investigated.

Another series addresses T2, human OATP1B1 (Homo sapiens, UniProt Q9Y6L6).
T2 construct: expressed in transfected cells; host or cells: HEK293 (HEK-OATP1B1)
T2 sequence (Q9Y6L6 1-691): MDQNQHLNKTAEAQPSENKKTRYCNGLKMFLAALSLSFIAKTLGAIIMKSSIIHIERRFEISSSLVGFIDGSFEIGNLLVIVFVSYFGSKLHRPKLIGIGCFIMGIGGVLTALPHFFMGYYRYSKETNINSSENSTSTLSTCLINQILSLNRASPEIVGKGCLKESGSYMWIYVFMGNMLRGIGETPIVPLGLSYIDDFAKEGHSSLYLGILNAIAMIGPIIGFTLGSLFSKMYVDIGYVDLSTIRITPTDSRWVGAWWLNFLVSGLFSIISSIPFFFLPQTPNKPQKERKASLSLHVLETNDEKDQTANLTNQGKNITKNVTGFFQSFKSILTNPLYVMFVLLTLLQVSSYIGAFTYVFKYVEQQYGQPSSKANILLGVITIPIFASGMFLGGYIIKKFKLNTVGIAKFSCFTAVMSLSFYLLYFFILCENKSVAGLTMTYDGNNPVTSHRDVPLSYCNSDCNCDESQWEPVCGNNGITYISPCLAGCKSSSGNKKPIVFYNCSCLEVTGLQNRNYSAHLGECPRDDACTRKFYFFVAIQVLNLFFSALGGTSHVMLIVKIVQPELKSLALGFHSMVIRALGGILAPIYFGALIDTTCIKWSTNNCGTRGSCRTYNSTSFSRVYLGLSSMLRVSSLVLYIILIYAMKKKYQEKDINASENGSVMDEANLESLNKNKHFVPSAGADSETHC
As to the kind of experiment: Uptake assay in HEK-OATP1B1 vs HEK-VC cells. The class given is in vitro ADME. As for the experimental part:
as §1

The test system of a further series is human OCT2 and MATE1. In words: Intracellular accumulation and transcellular transport in double-transfected MDCK-OCT2-MATE1 monolayers. Format: in vitro ADME. The following applies: for Intracellular concentration in MDCK-OCT2-MATE1 cells vs MDCK-VC cells: 10 μM basal, 60 minutes. On the procedure: The intracellular accumulation and transcellular, basal to apical transport experiments were performed as previously described in monolayers of polarized single-transfected (MDCK-OCT2, MDCK-MATE1) and double-transfected (MDCK-OCT2-MATE1) MDCK cells, MDCK control cells (MDCK-VC), or Caco-2 cells.[22] In brief, cell monolayers were grown in cell culture inserts on porous membranes. For MDCK-VC, MDCK-OCT2 and Caco-2, 5 × 10^5 cells were used per well; for MDCK-OCT2-MATE1, 6 × 10^5 cells were used, and for MDCK-MATE1, 8 × 10^5 cells were used per well. Cells were grown to confluence for 72 hours, induced with 10 mM sodium butyrate 48 hours after seeding for 24 hours (MDCK only), and subsequently used for transport experiments.
In general, after the cell culture medium was removed from both sides of the monolayers, cells were washed at 37 °C with transport buffer of the same composition as described in the previous section. Experiments were started by replacing the medium in the basal compartment with medium containing the putative biomarkers or [^3H]-labeled positive control substrates. The pH of the buffer on the basal side was 7.3 and 6.5 on the apical side for MDCK cells, whereas it was 7.3 on either side for Caco-2 cells. Cells were incubated at 37 °C and the buffer from the apical compartment was taken after 60 minutes for MDCK cells and after 240 minutes for Caco-2 cells. In case of Caco-2 cells, endogenous P-gp was inhibited by adding 2 μM of valspodar to the basal compartment. To measure the cellular accumulation of the test compounds, the remaining medium was removed at the end of the incubation period and the cell monolayers were rapidly rinsed 3 times with ice-cold 0.9% NaCl in water. Filters were detached from the chambers and placed into 500 μL of 80% MeOH containing the aforementioned recovery standards to lyse cells for subsequent LC-MS analysis or into 600 μL of 0.2% SDS (control experiments only). In the control experiments, the radioactivity of the collected apical medium and the solubilized cell monolayers and protein concentrations of the cell lysates were measured in the same way as described for the experiments with HEK cells.
as §2

Details of series [1]: method as in PMID 39148267. Particulars: humans, cited from earlier work; for In Vivo Change of Renal Excretion, Cimetidine: median log2-fold change after treatment with cimetidine; for In Vivo Change of Renal Excretion, Probenecid: median log2-fold change after treatment with probenecid; for In Vivo Change of Renal Excretion, Rifampin: median log2-fold change after treatment with rifampin; for In Vivo Change of Renal Excretion, Verapamil: median log2-fold change after treatment with verapamil.

Setting [2] is: 5 minutes, pH 8.0, HEK-VC set to 100%.
[3] abbreviates: listed as 5-amino valeric acid betaine.

Read-outs that look alike come from different tables or passages of the source. Marks after values point to notes of the source that are not given here.

For `NCCc1c[nH]c2ccc(O)cc12` [Serotonin, serotonin], the “Uptake in HEK-MATE1 cells compared to HEK-VC cells” value on MATE1 (setting [2]) worked out at 2469%. Also, the “Uptake ratio in HEK-MATE1 cells compared to HEK-VC cells” value at MATE1 (100 μM substrate, 5 minutes, pH 8.0, HEK-VC set to 100%) worked out at 1461%. Moreover, at MATE1 (5 minutes), the “Uptake in HEK-MATE1 cells compared to HEK-VC cells (in words)” value is reported as “significantly higher” and the “Effect of cimetidine on uptake in HEK-MATE1 cells” value (“Effect of cimetidine on uptake” below) is given as “significantly reduced”. Moreover, the “In Vitro MATE1 (substrate class)” value at MATE1 is given as “++”. Further, the “In Vitro OATP1B1 (substrate class)” value at human OATP1B1 is listed as “-”. For the same compound, in the series on human OCT2 and MATE1, the “Intracellular concentration in MDCK-OCT2-MATE1 cells vs MDCK-VC cells” value (“Intracellular concentration … vs MDCK-VC cells” below) was “significantly higher”. Also, in series [1] (cimetidine), the “Plasma concentrations, effect of cimetidine” value is on record as “did not sensitively change” and the “Urine to plasma ratio, change by cimetidine” value is listed as “–1.94 log2-fold change”. In series [1], the “In Vivo Change of Renal Excretion, Cimetidine” value (“In Vivo Change … Cimetidine” below) is given as “–2.89 ^c log2-fold change”; the “In Vivo Change of Renal Excretion, Probenecid” value (from here on “In Vivo Change … Probenecid”) was 0.06 log2-fold change; the “In Vivo Change of Renal Excretion, Rifampin” value (from here on “In Vivo Change … Rifampin”) is on record as “–0.06 log2-fold change”; the “In Vivo Change of Renal Excretion, Verapamil” value (shortened to “In Vivo Change … Verapamil”) was 0.00 log2-fold change. Also, the “In Vivo Change … Cimetidine” value in series [1] (listed as serotonin) is “–2.89 log2-fold change”.
As for `NCCc1ccc(O)cc1` [Tyramine, tyramine], the “Uptake in HEK-MATE1 cells compared to HEK-VC cells” value at MATE1 (setting [2]) is reported as 545%. On MATE1 (5 minutes), the “Uptake in HEK-MATE1 cells compared to HEK-VC cells (in words)” value is given as “significantly higher” and the “Effect of cimetidine on uptake” value is given as “significantly reduced”. Also, the “In Vitro MATE1 (substrate class)” value at MATE1 is given as “++”. On human OATP1B1, the “In Vitro OATP1B1 (substrate class)” value is given as 0 (significant uptake in HEK cells, but less than 300% of respective control cells or significant reduction of transcellular transport in Caco-2 cells, but reduction not below 50% of respective control without valspodar). Further, the “Intracellular concentration … vs MDCK-VC cells” value in the series on human OCT2 and MATE1 is on record as “no significant difference”. In series [1], the “In Vivo Change … Cimetidine” value is recorded as “–3.00 ^c log2-fold change”; the “In Vivo Change … Probenecid” value is listed as “–0.82 log2-fold change”; the “In Vivo Change … Rifampin” value is listed as “–0.11 log2-fold change”; the “In Vivo Change … Verapamil” value is “–0.22 log2-fold change”.
In the case of `Cn1cnc(CCN)c1` [1-Methylhistamine, 1-methylhistamine], the “Uptake in HEK-MATE1 cells compared to HEK-VC cells” value on MATE1 (setting [2]) is listed as 778%. At MATE1 (5 minutes), the “Uptake in HEK-MATE1 cells compared to HEK-VC cells (in words)” value is recorded as “significantly higher” and the “Effect of cimetidine on uptake” value was “significantly reduced”. Moreover, the “In Vitro MATE1 (substrate class)” value at MATE1 is listed as “++”. The “In Vitro OATP1B1 (substrate class)” value at human OATP1B1 was “-”. For the same compound, the “Intracellular concentration … vs MDCK-VC cells” value in the series with human OCT2 and MATE1 is reported as “significantly higher”. Also, in series [1], the “In Vivo Change … Cimetidine” value is given as “–2.01 ^c log2-fold change”; the “In Vivo Change … Probenecid” value is reported as “–0.25 log2-fold change”; the “In Vivo Change … Rifampin” value is given as “–0.07 log2-fold change”; the “In Vivo Change … Verapamil” value is recorded as 0.03 log2-fold change.
As to `C[N+](C)(C)CCCCC(=O)[O-]` [5-Amino valeric acid betaine, 5-amino valeric acid betaine], the “Intracellular background in HEK-MATE1 cells compared to HEK-VC cells” value at MATE1 (0 minutes and 5 minutes without added substance) is “lower”. Besides, the “Uptake in HEK-MATE1 cells compared to HEK-VC cells (in words)” value on MATE1 (5 minutes) is recorded as “significantly lower”. Further, the “In Vitro MATE1 (substrate class)” value at MATE1 is on record as “+”. Besides, the “In Vitro OATP1B1 (substrate class)” value at human OATP1B1 was 0 (significant uptake in HEK cells, but less than 300% of respective control cells or significant reduction of transcellular transport in Caco-2 cells, but reduction not below 50% of respective control without valspodar). In addition, the “Intracellular concentration … vs MDCK-VC cells” value with human OCT2 and MATE1 is recorded as “no significant difference”. In addition, the “Intracellular background in MDCK-OCT2-MATE1 cells” value with human OCT2 and MATE1 (60 minutes without added substance) is on record as “no 5-amino valeric acid betaine could be detected”. The “Renal elimination, change after cimetidine” value in series [1] (cimetidine) is on record as “–3.62 log2-fold change”. Also, in series [1], the “In Vivo Change … Cimetidine” value is given as “–4.28 ^c log2-fold change”; the “In Vivo Change … Probenecid” value was “–0.56 ^c log2-fold change”; the “In Vivo Change … Rifampin” value is “–0.21 log2-fold change”; the “In Vivo Change … Verapamil” value was “–1.00 log2-fold change”. In addition, in series [1] (setting [3]), the “In Vivo Change … Cimetidine” value is “–4.28 log2-fold change” and the “In Vivo Change … Probenecid” value is recorded as “–1.00 log2-fold change”.
